# Measured values taken from ChEMBL document CHEMBL1156829 (Proc Natl Acad Sci U S A, 2008).
# Experiments:
# [1] = NOVARTIS: Cytotoxicity against human hepatocellular carcinoma cell line (Huh7); assay type: toxicity, cell-based, Huh-7; conditions: Huh7 cells (hepatocellular carcinoma cell line)
# Plasmodium falciparum [2] = experiment: NOVARTIS: Inhibition of Plasmodium falciparum W2 (drug-resistant) proliferation in erythrocyte-based infection assay; assay type: functional, organism-based; conditions: Plasmodium falciparum, W2; read-out: EC50
# Plasmodium falciparum [3] = experiment: NOVARTIS: Inhibition of Plasmodium falciparum 3D7 (drug-susceptible) proliferation in erythrocyte-based infection assay; assay type: functional, organism-based; conditions: Plasmodium falciparum, 3D7
SMILES,CC50 [1] [µM],EC50 (Plasmodium falciparum [2]) [µM],EC50 (Plasmodium falciparum [3]) [µM]
CCN1/C(=C/c2sc3ccc(Br)cc3[n+]2CC)C=Cc2ccccc21,> 10,1.08,0.645
COc1ccc(CCN2CCC(NCc3cccc(N(C)C)c3)CC2)cc1,> 10,1.06,0.806
COC(=O)c1ccc(C(=O)Nc2ccc(-c3nc4cc(NC(=O)c5ccc(C(=O)OC)cc5)ccc4[nH]3)cc2)cc1,> 10,1.09,0.855
CCOC(=O)c1sc(NC(=O)CSc2nnc(CNC(=O)c3ccco3)n2-c2ccc(F)cc2)c(C(=O)OCC)c1C,> 10,> 1.06,> 1.25
C=CCC1(Nc2ccccc2)CCCCC1,> 10,> 1.05,> 1.25
CC(C)OC(=O)NC(Nc1ccccc1)C(Cl)(Cl)Cl (stereo not given),> 10,> 1.08,> 1.08
c1ccc2c(NCCc3c[nH]cn3)c3ccccc3nc2c1,23.3,2.46,1.73
CC(=NO)c1ccc2c(c1)C(C)(C)CCC2(C)C,37.1,3.9,3.51
CCC(C)NC(=O)CSc1nnc(-c2cccnc2)n1-c1ccc(Cl)cc1 (stereo not given),> 10,> 1.09,> 1.52
CN(CCCNc1ccnc2cc(Cl)ccc12)C(=O)c1cccc(C(F)(F)F)c1,> 2.55,0.278,0.0851
Cc1ccc(CNC(=O)c2cc(=O)[nH]c3ccc(S(=O)(=O)N4CCOCC4)cc23)cc1,> 10,> 1.09,1.43
COc1cc(NC(C)CCCN(Cc2ccc(OC)c(OC)c2)C(=O)CC(C)CC(C)(C)C)c2ncccc2c1 (stereo not given),5.89,0.64,1.04
CN1CCN(C(c2ccco2)c2sc3ncnn3c2O)CC1 (stereo not given),> 10,1.07,> 1.25
CN(C)c1ccc(NC(=O)c2cccnc2C(=O)O)cc1,7.84,0.841,0.32
CCCCCN(C(=O)c1ccc(C)cc1)C(CC)c1nc2ccccc2c(=O)n1-c1ccccc1OC (stereo not given),> 10,1.07,0.893
O=C(NCCCCNc1ccnc2cc(Cl)ccc12)c1ccco1,> 13.1,1.4,0.723
COc1ccccc1N(CC(=O)N1CCCCC1)S(=O)(=O)c1ccccc1,> 10,> 1.07,> 1.25
COc1cccc2cc(-c3csc(NC(=O)CCC(=O)NC4CCCC4)n3)c(=O)oc12,> 10,> 1.07,> 1.25
COc1cc(/C=C/c2nc(O)nc(O)c2[N+](=O)[O-])cc(Br)c1O,> 9.11,> 0.987,> 1.25
CCCCCCN(C(=O)Nc1cccc(C#N)c1)C(CC)c1nc2ccccc2c(=O)n1CCC(=O)OC (stereo not given),> 10,1.07,0.979
Cc1ccc(CN2C[C@H](n3cnnn3)C[C@H]2C(=O)NCCc2cccc(Cl)c2)c(C)c1,> 10.5,1.12,1.32
COc1ccc2c(c1OC)C(=O)N(c1ncc(C)s1)C2,> 10,> 1.08,> 1.25
CCCCCCOc1ccc(C(C)=NNC2=NCCN2)cc1[N+](=O)[O-],7.32,0.791,0.228
COc1cc(C=NNc2nc3cc(Cl)ccc3[nH]2)cc(OC)c1OC,> 10,1.08,0.904
COc1ccccc1NC(=O)C(=O)NCCc1ccc(OC)c(OC)c1,> 100,> 10.8,> 10.3
CCCCCN1/C(=C\C=C\c2n(CCCCC)c3cc(Cl)c(Cl)cc3[n+]2CC)N(CC)c2cc(Cl)c(Cl)cc21,> 10,> 1.06,> 1.3
CCC(c1nc2ccccc2c(=O)n1-c1cccc(Cl)c1)N(CCc1ccccc1)C(=O)c1ccc(F)cc1 (stereo not given),0.656,0.069,0.267
O=C1C(Cc2ccccc2)N=C2c3ccccc3N=C(SCc3ccc(Cl)cc3)N12 (stereo not given),> 10,> 1.05,> 1.25

SMILES,CC50 [1] [µM],EC50 (Plasmodium falciparum [2]) [µM],EC50 (Plasmodium falciparum [3]) [µM]
COc1ccccc1Cn1c(SCc2ccc(Cl)cc2)nc2ccc(Br)cc2c1=O,> 10,> 1.05,> 1.16
Cc1oc2c(c1C(=O)N1CCCC1)C(=O)c1ccccc1C2=O,9.86,1.05,2.37
O=C(Nc1ccc(F)c(F)c1)c1ccccc1[N+](=O)[O-],> 10,1.06,> 0.903
Cc1ccc(-c2nc3cc(NC(=O)c4ccc(Cl)cc4Cl)ccc3o2)cc1,> 10,> 1.05,> 0.864
Cc1ccc(-c2ccc(C#N)c(OCC(=O)NCCc3ccccc3)n2)c(C)c1,> 10,> 1.06,> 1.25
COc1cc(NC(=O)/C=C/c2ccccc2Cl)cc(OC)c1OC,> 10,1.06,0.862
CCCCCc1ccc(-c2ccc(/C(C=[N+](C)C)=C\N(C)C)cc2)cc1,> 10,1.05,0.606
CC(=O)Nc1ccccc1-c1nnn(CC(N)=O)n1,> 100,> 10.4,> 10.5
Cc1c2ccccc2c(-c2ccccc2)c2ccccc12,6,0.626,1.23
COC(=O)c1c(-c2c(Cl)cccc2Cl)noc1C=CNc1ccc(Cl)cc1,> 100,10.5,> 1.79
COc1ccccc1-n1c(/C=C/c2cc(Br)ccc2O)nc2ccccc2c1=O,> 10,> 1.05,> 1.25
COc1cc2nc(C3CCC3)n(NC(=O)c3cccc(F)c3)c(=O)c2cc1OC,> 10,> 1.05,> 1.25
Cc1cccc(NC(=O)c2ccc3ccccc3n2)n1,> 10,> 1.09,> 0.547
Cc1ccccc1NC(c1cccc(Cl)c1)c1nnnn1C1CCCCC1 (stereo not given),> 10,> 1.07,> 1.72
Cc1ccc2nc(-c3ccccc3)cc(C(=O)Nc3ccc(Cl)cc3)c2c1,> 10,1.04,> 1.61
CCOC(=O)c1cnc2c(C)c3[nH]c(C)c(C)c3cc2c1O,> 10,1.07,> 1.31
COc1ccc(/C=C2\SC(=N)N(c3ccc4c(c3)OCO4)C2=O)cc1OC,> 10,> 1.06,> 1.72
COc1cc2c3cc1Oc1c(OC)c(OC)cc4c1C(Cc1ccc(O)c(c1)Oc1ccc(cc1)CC3N(C)CC2)N(C)CC4 (stereo not given),> 10,1.06,0.997
Cc1cccc(NC(=O)Nc2cccnc2)c1NC(=O)Nc1cccnc1,> 10,> 1.05,> 1.25
C=CCSc1nn2c(=O)c(C)nnc2s1,> 10,1.08,> 1.62
CCOC(=O)N1CCC(NC(=O)CSCc2nc(-c3cccc(OC)c3)oc2C)CC1,> 10,> 1.08,> 1.25
O=C(/C=C/c1ccc(Br)cc1)NC(=O)c1ccccc1O,> 10,1.09,> 1.25
Cc1cc(-c2cnc(N3CCCC3)nc2C2CCN(Cc3cccnc3)CC2)on1,> 10,> 1.09,0.19
CC(C)(C)C(/C=C/c1ccc(Cl)cc1Cl)n1nnnc1C1(Nc2ccc(Cl)cc2)CCCCC1 (stereo not given),> 10,> 1.05,> 1.25
O=[N+]([O-])c1cc([N+](=O)[O-])c2cccnc2c1Nc1cccc2cccnc12,59.9,6.44,8.04
CCN(CC)CCCC(C)NC(=O)CSc1nc2ccccc2c(=O)n1-c1cccc(Cl)c1 (stereo not given),> 10,> 1.07,> 1.25
N#Cc1c(NC(=O)COc2ccc(F)cc2F)sc2c1CCC2,> 10,> 1.07,> 1.25
